Measured values taken from patent publication US12202844B2, “MAP4K1 inhibitors” (Blueprint Medicines Corporation, priority 2021, dated 2025).

How the values were obtained:
[1] = system: Primary T Cell (expanded CD3+ T cells); assay: T cell enhancement of cytokines: IL2 measurement (HTRF) in stimulated expanded CD3+ T cells; format: cell-based, human; settings: Homo sapiens, T-cell, 24 h, plate-bound anti-CD3 and soluble anti-CD28, 24 h, IL2 by HTRF; read-out: IL-2 Primary T Cell EC50
Procedure: T cells are isolated from whole blood of healthy donors by immunomagnetic negative selection following manufacture's protocol (StemCell Technologies, human T cell isolation kit). Purity of isolated cells is assessed by flow cytometry and yields 95-98% CD3^+ T cells. For expansion of T cells, 1×10^6 cells/well are plated in serum free cell expansion media (ThermoFisher) containing 30 U of recombinant human IL2 (R&D) and stimulated with 25 ul of CD3/CD28 beads (Invitrogen) in 24 well plates for 3-4 days. T cells are then expanded in 175 cm flasks and maintained at a cell density of 1 to 2.5×10^6 cells/ml days by addition of ⅔ of fresh media every 2-3 days. After 10-14 days, cells are frozen in BamBanker freezing media (Thermo) and stored in liquid nitrogen.
For IL2 measurement, expanded CD3^+ T cells are dispensed at 100K cells/well (cultured in X-VIVO 10 Serum-free media) and are stimulated with plate-bound anti-CD3 and soluble anti-CD28 in the presence of vehicle or compound of the disclosure at various concentrations for 24 h. As outlined in the manufacturer's protocol (Cisbio), 16 μL of conditioned media is transferred to a white 384-well low volume plate. Following a 24 h incubation with the anti-IL2 antibodies, the homogenous time resolved fluorescence (HTRF) is measured.

MAP4K1 (HPK1) = molecular target: T1, MAP4K1 (HPK1) (Homo sapiens, UniProt Q92918); assay: Inhibition of MAP4K1 biochemical enzymatic activity (EZReader 2 electrophoretic mobility shift); settings: HPK1 (Invitrogen), S6K2tide 1.5 μM, 120 min; ATP 26 μM or 1000 μM (not given)
T1 construct: purchased Invitrogen
Procedure, shortened: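 Untreated enzyme (0.1-15 nM) was incubated with 1.5 μM fluorescent peptide and 20-1000 μM ATP (apparent Km or 1 mM) in HEPES pH 7.5, MgCl2, DTT, Brij 35 at 25° C. for 60-180 min, with 1% DMSO and a 10-point 4-fold compound series. After an EDTA stop, product/substrate peptide peak ratio was read by mobility shift.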

T1 sequence (Q92918 whole entry): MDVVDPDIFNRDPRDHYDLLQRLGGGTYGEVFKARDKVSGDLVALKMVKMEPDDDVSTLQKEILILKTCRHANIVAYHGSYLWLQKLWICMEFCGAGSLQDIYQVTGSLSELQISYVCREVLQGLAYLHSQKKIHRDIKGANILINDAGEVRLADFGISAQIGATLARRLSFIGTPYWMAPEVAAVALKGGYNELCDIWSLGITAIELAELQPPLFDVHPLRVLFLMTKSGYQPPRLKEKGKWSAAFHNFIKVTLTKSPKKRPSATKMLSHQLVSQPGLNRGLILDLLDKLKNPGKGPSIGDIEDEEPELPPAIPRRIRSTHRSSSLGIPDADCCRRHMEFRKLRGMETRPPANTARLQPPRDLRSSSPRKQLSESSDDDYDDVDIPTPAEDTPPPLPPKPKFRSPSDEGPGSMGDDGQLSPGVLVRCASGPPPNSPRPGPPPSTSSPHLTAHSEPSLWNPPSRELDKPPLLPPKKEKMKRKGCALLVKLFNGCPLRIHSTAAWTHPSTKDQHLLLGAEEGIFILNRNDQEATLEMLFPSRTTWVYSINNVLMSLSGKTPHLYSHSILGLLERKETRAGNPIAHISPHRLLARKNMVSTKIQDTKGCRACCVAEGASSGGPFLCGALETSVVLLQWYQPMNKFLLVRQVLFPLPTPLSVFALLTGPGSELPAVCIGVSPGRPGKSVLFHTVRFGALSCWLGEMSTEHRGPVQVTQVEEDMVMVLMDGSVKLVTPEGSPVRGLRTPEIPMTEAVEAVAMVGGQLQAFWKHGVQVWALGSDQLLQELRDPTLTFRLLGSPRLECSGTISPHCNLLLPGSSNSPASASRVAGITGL

Row | SMILES | EC50 [1] [nM] | IC50 (MAP4K1 (HPK1)) [nM]
1 | CCS(=O)(=O)[C@H]1C[C@@H](Oc2ncc(C(C)(C)N)c3cc(Nc4ccc5c(n4)[C@@H](C)[C@H](C)OC5=O)ncc23)C1 [Compound 39, (7S,8R)-2-((5-(2-Aminopropan-2-yl)-8-((cis)-3-(ethylsulfonyl)cyclobutoxy)-2,7-naphthyridin-3-yl)amino)-7,8-dimethyl-7,8-dihydro-5H-pyrano[4,3-b]pyridin-5-one] | 11 | 0.13
2 | C[C@@H]1c2nc(Nc3cc4c(C(C)(C)N)cnc(O[C@H]5C[C@@H](S(C)(=O)=O)C5)c4cn3)ccc2C(=O)OC1(C)C [Compound 42, (R)-2-((5-(2-Aminopropan-2-yl)-8-(cis-3-(methylsulfonyl)cyclobutoxy)-2,7-naphthyridin-3-yl)amino)-7,7,8-trimethyl-7,8-dihydro-5H-pyrano[4,3-b]pyridin-5-one] | 9 | 0.09
3 | C[C@H](C[C@@H](C)S(C)(=O)=O)Oc1ncc(C(C)(C)N)c2cc(Nc3ccc4c(n3)[C@@H](C)[C@H](C)OC4=O)ncc12 [Compound 51] | 25 | 0.15
4 | CC[C@@](C)(N)c1cnc(O[C@H](C)CCS(C)(=O)=O)c2cnc(Nc3ccc4c(n3)[C@@H](C)[C@H](C)OC4=O)cc12 [Compound 52, (7S,8R)-2-((5-((R)-2-Aminobutan-2-yl)-8-(((R)-4-(methylsulfonyl)butan-2-yl)oxy)-2,7-naphthyridin-3-yl)amino)-7,8-dimethyl-7,8-dihydro-5H-pyrano[4,3-b]pyridin-5-one] | 9 | 0.13
5 | CC[C@@](C)(N)c1cnc(O[C@@H](C)CCS(C)(=O)=O)c2cnc(Nc3ccc4c(n3)[C@@H](C)[C@H](C)OC4=O)cc12 [Compound 53] | 21 | 0.11
6 | C[C@@H]1OC(=O)c2ccc(Nc3cc4c([C@](C)(N)C5CC5)cnc(O[C@H]5C[C@@H](S(C)(=O)=O)C5)c4cn3)nc2[C@H]1C [Compound 60] | 10 | 0.19
7 | CCS(=O)(=O)[C@H]1C[C@@H](Oc2ccc(C(C)(C)N)c3cc(Nc4ccc5c(n4)[C@@H](C)C(C)(C)OC5=O)ncc23)C1 [Compound 63] | 14 | 0.09
8 | CCS(=O)(=O)[C@H]1C[C@@H](Nc2ncc(C(C)(C)N)c3cc(Nc4ccc5c(n4)[C@@H](C)C(C)(C)OC5=O)ncc23)C1 [Compound 64] | 105 | 0.21
9 | C[C@H](CCS(C)(=O)=O)Oc1ncc(C(C)(C)N)c2cc(Nc3ccc4c(n3)C3(CC3)C(C)(C)OC4=O)ncc12 [Compound 67] | 40 | 0.77
10 | CC[C@@](C)(N)c1cnc(O[C@H]2C[C@@H](S(=O)(=O)CC)C2)c2cnc(Nc3ccc4c(n3)[C@@H](C)[C@H](C)OC4=O)cc12 [Compound 77] | 3 | 0.06
11 | CC[C@@](C)(N)c1cnc(O[C@H]2C[C@@H](S(C)(=O)=O)C2)c2cnc(Nc3ccc4c(n3)[C@@H](C)C(C)(C)OC4=O)cc12 [Compound 78] | 7 | 0.14
12 | CCS(=O)(=O)[C@H]1C[C@@H](Oc2ncc(C(C)(C)N)c3cc(Nc4ccc5c(n4)[C@@H](C)C(C)(C)OC5=O)ncc23)C1 [Compound 80] | 9 | 0.08
13 | C[C@@H]1OC(=O)c2ccc(Nc3cc4c(C(C)(C)N)cnc(O[C@H]5C[C@@H](S(=O)(=O)N(C)C)C5)c4cn3)nc2[C@H]1C [Compound 81] | 18 | 0.1
14 | CC[C@@](C)(N)c1cnc(O[C@H](C)C[C@@H](C)S(C)(=O)=O)c2cnc(Nc3ccc4c(n3)CC(C)(C)OC4=O)cc12 [Compound 87] | 29 | 0.13
15 | CC[C@@](C)(N)c1cnc(O[C@H](C)C[C@@H](C)S(C)(=O)=O)c2cnc(Nc3ccc4c(n3)C(C)(C)COC4=O)cc12 [Compound 88] | 23 | 0.21
16 | CC[C@@](C)(N)c1cnc(O[C@H](C)C[C@@H](C)S(C)(=O)=O)c2cnc(Nc3ccc4c(n3)[C@@H](C)[C@H](C)OC4=O)cc12 [Compound 90] | 3 | 0.11
17 | C[C@H](C[C@@H](C)S(C)(=O)=O)Oc1ncc(C(C)(C)N)c2cc(Nc3ccc4c(n3)[C@@H](C)C(C)(C)OC4=O)ncc12 [Compound 91] | 24 | 0.22
18 | CC[C@@](C)(N)c1cnc(O[C@H](C)CCS(C)(=O)=O)c2cnc(Nc3ccc4c(n3)[C@@H](C)C(C)(C)OC4=O)cc12 [Compound 94] | 26 | 0.14
19 | CC[C@@](C)(N)c1cnc(O[C@@H](C)CCS(C)(=O)=O)c2cnc(Nc3ccc4c(n3)[C@@H](C)C(C)(C)OC4=O)cc12 [Compound 95] | 52 | 0.08
20 | C[C@@H]1c2nc(Nc3cc4c(C(C)(C)N)cnc(O[C@H]5C[C@@H](S(=O)(=O)C6CC6)C5)c4cn3)ccc2C(=O)OC1(C)C [Compound 102] | 15 | 0.14
21 | CC[C@@](C)(N)c1cnc(O[C@H](C)CCS(C)(=O)=O)c2cnc(Nc3ccc4c(n3)C3(CC3)C(C)(C)OC4=O)cc12 [Compound 105] | 41 | 0.37
22 | CC[C@@](C)(N)c1cnc(O[C@H]2C[C@@H](S(=O)(=O)CC)C2)c2cnc(Nc3ccc4c(n3)[C@@H](C)C(C)(C)OC4=O)cc12 [Compound 117] | 6 | 0.05
23 | C[C@@H]1c2nc(Nc3cc4c(C(C)(C)N)cnc(O[C@H]5C[C@@H](S(=O)(=O)N(C)C)C5)c4cn3)ccc2C(=O)OC1(C)C [Compound 118] | 27 | 0.11
24 | CCS(=O)(=O)[C@H]1C[C@@H](Oc2ncc([C@](C)(N)COC)c3cc(Nc4ccc5c(n4)[C@@H](C)[C@H](C)OC5=O)ncc23)C1 [Compound 122] | 27 | 0.1

Further lines, results first:

Row | EC50 [1] [nM] | IC50 (MAP4K1 (HPK1)) [nM] | SMILES
25 | 34 | 0.16 | COC[C@@](C)(N)c1cnc(O[C@H]2C[C@@H](S(C)(=O)=O)C2)c2cnc(Nc3ccc4c(n3)[C@@H](C)C(C)(C)OC4=O)cc12 [Compound 123]
26 | 10 | 0.12 | CC[C@@](C)(N)c1cnc(O[C@H](C)C[C@@H](C)S(=O)(=O)CC)c2cnc(Nc3ccc4c(n3)[C@@H](C)[C@H](C)OC4=O)cc12 [Compound 127, (7S,8R)-2-((5-((R)-2-Aminobutan-2-yl)-8-(((2R,4R)-4-(ethylsulfonyl)pentan-2-yl)oxy)-2,7-naphthyridin-3-yl)amino)-7,8-dimethyl-7,8-dihydro-5H-pyrano[4,3-b]pyridin-5-one]
27 | 36 | 0.16 | CCS(=O)(=O)[C@H](C)C[C@@H](C)Oc1ncc(C(C)(C)N)c2cc(Nc3ccc4c(n3)[C@@H](C)C(C)(C)OC4=O)ncc12 [Compound 128]
28 | 7 | 0.16 | CC[C@@](C)(N)c1cnc(O[C@H](C)C[C@@H](C)S(C)(=O)=O)c2cnc(Nc3ccc4c(n3)[C@@H](C)C(C)(C)OC4=O)cc12 [Compound 129]
29 | 66 | 0.19 | CC[C@@](C)(N)c1cnc(O[C@@H](C)CCS(=O)(=O)CC)c2cnc(Nc3ccc4c(n3)[C@@H](C)C(C)(C)OC4=O)cc12 [Compound 132]
30 | 10 | 0.28 | CC[C@@](C)(N)c1cnc(O[C@H](C)C[C@@H](C)S(C)(=O)=O)c2cnc(Nc3ccc4c(n3)C3(CC3)C(C)(C)OC4=O)cc12 [Compound 136, 2′-((5-((R)-2-Aminobutan-2-yl)-8-(((2R,4R)-4-(methylsulfonyl)pentan-2-yl)oxy)-2,7-naphthyridin-3-yl)amino)-7′,7′-dimethyl-5′H,7′H-spiro[cyclopropane-1,8′-pyrano[4,3-b]pyridin]-5′-one]
31 | 74 | 0.36 | COC[C@@](C)(N)c1cnc(O[C@H]2C[C@H](CS(C)(=O)=O)C2)c2cnc(Nc3ccc4c(n3)[C@@H](C)C(C)(C)OC4=O)cc12 [Compound 139]
32 | 33 | 0.33 | COC[C@@](C)(N)c1cnc(O[C@H]2C[C@@H](CS(C)(=O)=O)C2)c2cnc(Nc3ccc4c(n3)[C@@H](C)C(C)(C)OC4=O)cc12 [Compound 140]
33 | 15 | 0.15 | CCS(=O)(=O)[C@H]1C[C@@H](Oc2ncc([C@](C)(N)COC)c3cc(Nc4ccc5c(n4)[C@@H](C)C(C)(C)OC5=O)ncc23)C1 [Compound 141]
34 | 16 | 0.15 | CC[C@@](C)(N)c1cnc(O[C@H](C)C[C@@H](C)S(=O)(=O)CC)c2cnc(Nc3ccc4c(n3)[C@@H](C)C(C)(C)OC4=O)cc12 [Compound 143]
35 | 39 | 0.23 | COC[C@@](C)(N)c1cnc(O[C@H](C)C[C@@H](C)S(C)(=O)=O)c2cnc(Nc3ccc4c(n3)[C@@H](C)C(C)(C)OC4=O)cc12 [Compound 144]
36 | 32 | 0.21 | COC[C@@](C)(N)c1cnc(O[C@H]2C[C@@H](S(=O)(=O)C3CC3)C2)c2cnc(Nc3ccc4c(n3)[C@@H](C)C(C)(C)OC4=O)cc12 [Compound 145]
37 | 32 | 0.3 | COC[C@@](C)(N)c1cnc(O[C@H]2C[C@@H](S(C)(=O)=O)C2)c2cnc(Nc3ccc4c(n3)C3(CC3)C(C)(C)OC4=O)cc12 [Compound 162]
